Assay type in all cases: functional
The subject of one experiment is Staphylococcus aureus. Briefly: Antibacterial activity against Staphylococcus aureus ATCC 25923 by serial dilution method.
In another experiment the test system is Pseudomonas aeruginosa. Description: Antibacterial activity against Pseudomonas aeruginosa ATCC 27853 by serial dilution method.
For the next experiment, the system named is Escherichia coli. Description: Antibacterial activity against Escherichia coli ATCC 25922 by serial dilution method.
The next experiment deals with Bacillus subtilis. Description: Antibacterial activity against Bacillus subtilis by serial dilution method.
The subject of another experiment is Candida albicans. Description: Antifungal activity against Candida albicans NCIM No. 3100 by serial dilution method.

Converted amounts (≈) assume the structure as drawn.

The MIC is the least concentration at which growth counts as inhibited. Low readings indicate a more susceptible organism, high ones a less susceptible organism. For the molecule `COc1ccc(-[n+]2noc([O-])c2C(=O)CSc2nnc(Cc3ccccc3)c(=O)n2N)cc1`, the MIC with Staphylococcus aureus, against Pseudomonas aeruginosa, against Escherichia coli, with Bacillus subtilis and in the experiment on Candida albicans was 0.25 µg/mL (≈ 0.536 µM) throughout.
Molecule `OC(Cn1cncn1)(Cn1cncn1)c1ccc(F)cc1F` [FLUCONAZOLE] registered an MIC in the experiment on Candida albicans of 0.25 µg/mL (≈ 0.816 µM).
As to `Cc1ccc(-[n+]2noc([O-])c2C(=O)CSc2nnc(Cc3ccc(Cl)cc3)c(=O)n2N)cc1`, the MIC in the experiment on Staphylococcus aureus, in the experiment on Pseudomonas aeruginosa, in the experiment on Escherichia coli, in the experiment on Bacillus subtilis and with Candida albicans was 0.25 µg/mL (≈ 0.516 µM) in each case.
Regarding `Nn1c(SCC(=O)c2c([O-])on[n+]2-c2ccccc2)nnc(Cc2ccc([N+](=O)[O-])cc2)c1=O`, the minimal inhibitory concentration (MIC) was found to be 0.5 µg/mL (≈ 1.04 µM) with Staphylococcus aureus; 0.25 µg/mL (≈ 0.519 µM) against Pseudomonas aeruginosa; 0.25 µg/mL (≈ 0.519 µM) against Escherichia coli; 0.25 µg/mL (≈ 0.519 µM) in the experiment with Bacillus subtilis; 0.25 µg/mL (≈ 0.519 µM) with Candida albicans.
Regarding `COc1ccc(-[n+]2noc([O-])c2C(=O)CSc2nnc(Cc3ccc(Br)cc3)c(=O)n2N)cc1`, the MIC against Staphylococcus aureus, in the experiment on Pseudomonas aeruginosa, against Escherichia coli, with Bacillus subtilis and against Candida albicans was 0.25 µg/mL (≈ 0.458 µM) in each case.
As for `COc1ccc(-[n+]2noc([O-])c2C(=O)CSc2nnc(Cc3ccc(Cl)cc3)c(=O)n2N)cc1`, the minimum inhibitory concentration (MIC) in the experiment on Staphylococcus aureus, against Pseudomonas aeruginosa, in the experiment with Escherichia coli, in the experiment on Bacillus subtilis and against Candida albicans was 0.25 µg/mL (≈ 0.499 µM) in each case.
With `Cc1ccc(-[n+]2noc([O-])c2C(=O)CSc2nnc(Cc3ccc(Br)cc3)c(=O)n2N)cc1`, the MIC in the experiment with Staphylococcus aureus, in the experiment on Pseudomonas aeruginosa, against Escherichia coli, against Bacillus subtilis and against Candida albicans was 0.25 µg/mL (≈ 0.472 µM) each time.
For the molecule `Nn1c(SCC(=O)c2c([O-])on[n+]2-c2ccccc2)nnc(Cc2ccc(Cl)cc2)c1=O`, the MIC against Staphylococcus aureus, in the experiment on Pseudomonas aeruginosa, in the experiment on Escherichia coli, in the experiment on Bacillus subtilis and in the experiment on Candida albicans was 0.25 µg/mL (≈ 0.531 µM) in each case.
As for `NC(=O)N/N=C/c1ccc([N+](=O)[O-])o1` [NITROFURAZONE], the MIC was 0.5 µg/mL (≈ 2.52 µM) with Staphylococcus aureus, 0.5 µg/mL (≈ 2.52 µM) against Pseudomonas aeruginosa, 0.25 µg/mL (≈ 1.26 µM) in the experiment with Escherichia coli and 0.5 µg/mL (≈ 2.52 µM) in the experiment on Bacillus subtilis.
Consider `Nn1c(SCC(=O)c2c([O-])on[n+]2-c2ccccc2)nnc(Cc2ccccc2)c1=O`, for which the minimal inhibitory concentration (MIC) against Staphylococcus aureus, in the experiment on Pseudomonas aeruginosa, in the experiment with Escherichia coli, with Bacillus subtilis and in the experiment with Candida albicans was 0.25 µg/mL (≈ 0.573 µM) throughout.
With `Cc1ccc(-[n+]2noc([O-])c2C(=O)CSc2nnc(Cc3ccc4c(c3)OCO4)c(=O)n2N)cc1`, the MIC in the experiment on Staphylococcus aureus, against Pseudomonas aeruginosa, in the experiment with Escherichia coli, in the experiment with Bacillus subtilis and in the experiment on Candida albicans was 0.25 µg/mL (≈ 0.506 µM) throughout.
As to `Nn1c(SCC(=O)c2c([O-])on[n+]2-c2ccccc2)nnc(Cc2ccc(Br)cc2)c1=O`, the minimal inhibitory concentration (MIC) against Staphylococcus aureus, with Pseudomonas aeruginosa, in the experiment on Escherichia coli, against Bacillus subtilis and against Candida albicans was 0.25 µg/mL (≈ 0.485 µM) in each case.
Turning to `Nn1c(SCC(=O)c2c([O-])on[n+]2-c2ccccc2)nnc(Cc2ccc3c(c2)OCO3)c1=O`, the MIC in the experiment on Staphylococcus aureus, against Pseudomonas aeruginosa, with Escherichia coli, against Bacillus subtilis and against Candida albicans was 0.25 µg/mL (≈ 0.52 µM) each time.
For `Cc1ccc(-[n+]2noc([O-])c2C(=O)CSc2nnc(Cc3ccccc3)c(=O)n2N)cc1`, the MIC in the experiment with Staphylococcus aureus, with Pseudomonas aeruginosa, in the experiment with Escherichia coli, in the experiment with Bacillus subtilis and in the experiment on Candida albicans was 0.25 µg/mL (≈ 0.555 µM) each time.

For the origin of these results see ChEMBL document CHEMBL1154470, “Synthesis and antimicrobial activities of a new series of 4-S-[4(1)-amino-5(1)-oxo-6(1)-substituted benzyl-4(1),5(1)-dihydro-1(1),2(1),4(1)-triazin-3-yl]mercaptoacetyl-3-arylsydnones” (2008).
